Data from US7851473B2, “Amide compound” (Takeda Pharmaceutical Company Limited, priority 2004, dated 2010).
Structures can show the parent of a compound that is named as a salt.

Target: T1, human FAAH (Homo sapiens, UniProt O00519)
T1 construct: made in house; 10000 g pellet suspended in M-PER
T1 sequence (O00519 1-579): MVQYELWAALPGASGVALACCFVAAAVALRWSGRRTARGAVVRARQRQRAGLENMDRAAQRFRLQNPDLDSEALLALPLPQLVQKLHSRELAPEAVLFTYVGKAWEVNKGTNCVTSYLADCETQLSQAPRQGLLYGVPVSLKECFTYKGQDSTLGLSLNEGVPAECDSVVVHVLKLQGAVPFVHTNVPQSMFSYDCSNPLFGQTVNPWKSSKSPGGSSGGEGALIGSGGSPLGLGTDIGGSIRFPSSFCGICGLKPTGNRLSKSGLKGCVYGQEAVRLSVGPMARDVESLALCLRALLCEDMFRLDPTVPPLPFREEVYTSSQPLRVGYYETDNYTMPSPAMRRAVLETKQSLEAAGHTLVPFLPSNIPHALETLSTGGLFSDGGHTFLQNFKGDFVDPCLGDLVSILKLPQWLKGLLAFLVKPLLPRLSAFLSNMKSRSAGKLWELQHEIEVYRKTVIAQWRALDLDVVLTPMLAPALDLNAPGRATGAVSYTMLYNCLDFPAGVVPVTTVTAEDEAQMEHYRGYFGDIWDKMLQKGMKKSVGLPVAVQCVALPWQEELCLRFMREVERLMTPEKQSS
Test: Measurement of FAAH inhibitory activity (anandamide [ethanolamine 1-3H] hydrolysis, filter plate)
Assay type: biochemical
Conditions: test compound 1 μM; CHO-K1/human FAAH enzyme fraction; anandamide 25 nM; 37° C., 30 minutes; read-out: Human FAAH Inhibition Rate at 1 μM (%)
Description: (1) Preparation of Enzyme Fraction
The FAAH gene was cloned by PCR. That is, a human brain library was used as a cDNA library, 5′-[…]-3′ [SEQ ID NO:1] and 5′-[…]-3′ [SEQ ID NO:2] were used as a primer set, and KOD DNA polymerase (Toyobo Co., Ltd.) was used as a DNA polymerase. One cycle of the reaction comprises 95° C. for 30 sec, 55° C. for 30 sec and 72° C. for 2 min, and 45 cycles of the reaction was carried out to obtain an amplified fragment. The amplified fragment was cleaved with restriction enzymes EcoRI and SalI, and then was inserted into a pMSRα vector which had been cleaved with the same restriction enzymes EcoRI and SalI to obtain a pMSRα-human FAAH. A cell line CHO-K1 and the above-obtained plasmid were subjected to a method known per se to prepare the cell line CHO-K1/human FAAH in which human FAAH was stably expressed. The CHO-K1/human FAAH was cultured in a CO2 incubator at 37° C., using a medium (Ham's F-12 medium supplemented with final concentration 10% of fetal bovine serum (FBS) and final concentration 800 μg/ml of G418), and then the cells were harvested. After washing with PBS, the cells were suspended in a buffer (10 mM Tris, 1 mM EDTA and 10 mM MgCl2, all at final concentrations) and disrupted with a Polytron homogenizer. After centrifugation at 900 g, the supernatant was recovered and further centrifuged at 10000 g. A pellet obtained therefrom was suspended in M-PER (Catalog No. 78501; PIERCE) to give an enzyme fraction.
Using a white walled 96-well plate (Coster Corp.), the test compound at various concentrations, 60 ng of the enzyme fraction and the substrate anandamide [ethanolamine 1-^3H] (final concentration 25 nM) were reacted in 50 μl of a reaction buffer (125 mM Tris-HCl (pH 9.0), 1 mM EDTA, 0.4 mM HEPES, 0.2% glycerol and 0.02% Triton X-100, all at final concentrations) at 37° C. for 30 minutes. The reaction mixture was transferred to a 96-well MultiScreen-HA filter plate (Millipore Corp.) and then was left to stand overnight at room temperature in order to allow the unreacted substrate to be adsorbed on the filter. The plate was washed with PBS using a MultiScreen Vacuum Manifold (Millipore Corp.) and dried. To each well, 50 μl of liquid scintillation cocktail was added and stirred, and then counting was performed with a TopCount (Perkin-Elmer Corp.). The count of a sample containing a solvent instead of the test compound was taken as 0%, and the count at zero time was taken as 100%, to calculate the inhibitory activity of the compound.

Structure (SMILES)	inhibition at 1 µM [%]
O=C(Nc1noc2ccccc12)N1CCN(c2nc(-c3ccccc3)ns2)CC1 [Example 1, N-1,2-Benzisoxazol-3-yl-4-(3-phenyl-1,2,4-thiadiazol-5-yl)piperazine-1-carboxamide]	100
CC(C)c1nsc(N2CCN(C(=O)Nc3noc4ccccc34)CC2)n1 [Example 9, N-1,2-Benzisoxazol-3-yl-4-(3-isopropyl-1,2,4-thiadiazol-5-yl)piperazine-1-carboxamide]	98
O=C(Nc1noc2ccccc12)N1CCN(c2nc(-c3ccccn3)ns2)CC1 [Example 15, N-1,2-Benzisoxazol-3-yl-4-(3-pyridin-2-yl-1,2,4-thiadiazol-5-yl)piperazine-1-carboxamide]	102
O=C(Nc1noc2ccccc12)N1CCN(c2nc(N3CCCCC3)ns2)CC1 [Example 17, N-1,2-Benzisoxazol-3-yl-4-(3-piperidin-1-yl-1,2,4-thiadiazol-5-yl)piperazine-1-carboxamide]	95
O=C(Nc1noc2ccccc12)N1CCN(c2nc(-c3ccccc3)no2)CC1 [Example 22, N-1,2-Benzisoxazol-3-yl-4-(3-phenyl-1,2,4-oxadiazol-5-yl)piperazine-1-carboxamide]	94
O=C(Nc1noc2ccccc12)N1CCN(c2nc(-c3ccccc3)co2)CC1 [Example 23, N-1,2-Benzisoxazol-3-yl-4-(4-phenyl-1,3-oxazol-2-yl)piperazine-1-carboxamide]	100
O=C(Nc1ccc2[nH]nnc2c1)N1CCN(c2nc(-c3ccccc3)ns2)CC1 [Example 71, N-1H-1,2,3-Benzotriazol-5-yl-4-(3-phenyl-1,2,4-thiadiazol-5-yl)piperazine-1-carboxamide]	108
O=C(Nc1cccnc1)N1CCN(c2nc(-c3ccccc3)ns2)CC1 [Example 85, 4-(3-Phenyl-1,2,4-thiadiazol-5-yl)-N-pyridin-3-ylpiperazine-1-carboxamide hydrochloride]	100
O=C(Nc1cccnc1)N1CCN(c2nc(-c3ccccc3)cs2)CC1 [Example 94, 4-(4-Phenyl-1,3-thiazol-2-yl)-N-pyridin-3-ylpiperazine-1-carboxamide]	100
O=C(Nc1noc2ccccc12)N1CCN(C(=O)OCc2ccccc2)CC1 [Example 95, Benzyl 4-[(1,2-benzisoxazol-3-ylamino)carbonyl]piperazine-1-carboxylate]	100
O=C(Nc1cccnn1)N1CCN(c2nc(-c3ccccc3)ns2)CC1 [Example 147, 4-(3-Phenyl-1,2,4-thiadiazol-5-yl)-N-pyridazin-3-ylpiperazine-1-carboxamide]	101
O=C(Nc1cnccn1)N1CCN(c2nc(-c3ccccc3)cs2)CC1 [Example 166, 4-(4-Phenyl-1,3-thiazol-2-yl)-N-pyrazin-2-ylpiperazine-1-carboxamide]	106
Cc1noc(NC(=O)N2CCC(c3nc(-c4ccccc4)cs3)CC2)c1C [Example 190, N-(3,4-Dimethylisoxazol-5-yl)-4-(4-phenyl-1,3-thiazol-2-yl)piperidine-1-carboxamide]	103
CCc1sc(N2CCN(C(=O)Nc3ccc(NC(C)=O)nc3)CC2)nc1-c1ccccc1 [Example 226, N-[6-(Acetylamino)pyridin-3-yl]-4-(5-ethyl-4-phenyl-1,3-thiazol-2-yl)piperazine-1-carboxamide]	104
O=C(Nc1cccnn1)N1CCN(c2nc(-c3cccc(F)c3)cs2)CC1 [Example 228, 4-[4-(3-Fluorophenyl)-1,3-thiazol-2-yl]-N-pyridazin-3-ylpiperazine-1-carboxamide]	106
O=C(Nc1cnccn1)N1CCN(c2nc(-c3cccc(F)c3)cs2)CC1 [Example 229, 4-[4-(3-Fluorophenyl)-1,3-thiazol-2-yl]-N-pyrazin-2-ylpiperazine-1-carboxamide]	105
Cc1noc(NC(=O)N2CCC(c3nc(-c4ccc(F)cc4)cs3)CC2)c1C [Example 236, N-(3,4-Dimethylisoxazol-5-yl)-4-[4-(4-fluorophenyl)-1,3-thiazol-2-yl]piperidine-1-carboxamide]	106
Cc1noc(NC(=O)N2CCN(c3nc(-c4ccc(F)cc4F)cs3)CC2)c1C [Example 260, 4-[4-(2,4-Difluorophenyl)-1,3-thiazol-2-yl]-N-(3,4-dimethylisoxazol-5-yl)piperazine-1-carboxamide]	102
O=C(Nc1cccnc1)N1CCN(c2nc(-c3cccc(F)c3F)cs2)CC1 [Example 262, 4-[4-(2,3-Difluorophenyl)-1,3-thiazol-2-yl]-N-pyridin-3-ylpiperazine-1-carboxamide]	106
O=C(Nc1cccnn1)N1CCN(c2nc(-c3cccc(F)c3F)cs2)CC1 [Example 272, 4-[4-(2,3-Difluorophenyl)-1,3-thiazol-2-yl]-N-pyridazin-3-ylpiperazine-1-carboxamide]	102
Cc1cccc(-c2csc(N3CCN(C(=O)Nc4cccnc4)CC3)n2)c1 [Example 275, 4-[4-(3-Methylphenyl)-1,3-thiazol-2-yl]-N-pyridin-3-ylpiperazine-1-carboxamide]	94
Cc1noc(NC(=O)N2CCN(c3nc(-c4cccc(Cl)c4)cs3)CC2)c1C [Example 276, 4-[4-(3-Chlorophenyl)-1,3-thiazol-2-yl]-N-(3,4-dimethylisoxazol-5-yl)piperazine-1-carboxamide]	104
COc1cccc(-c2csc(N3CCN(C(=O)Nc4onc(C)c4C)CC3)n2)c1 [Example 277, N-(3,4-Dimethylisoxazol-5-yl)-4-[4-(3-methoxyphenyl)-1,3-thiazol-2-yl]piperazine-1-carboxamide]	100
Cc1noc(NC(=O)N2CCN(c3nc(-c4cccc(C(F)(F)F)c4)cs3)CC2)c1C [Example 278, N-(3,4-Dimethylisoxazol-5-yl)-4-{4-[3-(trifluoromethyl)phenyl]-1,3-thiazol-2-yl}piperazine-1-carboxamide]	104
Cc1cccc(-c2csc(N3CCN(C(=O)Nc4onc(C)c4C)CC3)n2)c1 [Example 280, N-(3,4-Dimethylisoxazol-5-yl)-4-[4-(3-methylphenyl)-1,3-thiazol-2-yl]piperazine-1-carboxamide]	86
O=C(Nc1cccnc1)N1CCN(c2nc(-c3cccc(Cl)c3Cl)cs2)CC1 [Example 283, 4-[4-(2,3-Dichlorophenyl)-1,3-thiazol-2-yl]-N-pyridin-3-ylpiperazine-1-carboxamide]	102
Cc1noc(NC(=O)N2CCN(c3nc(-c4cccc(Cl)c4Cl)cs3)CC2)c1C [Example 284, 4-[4-(2,3-Dichlorophenyl)-1,3-thiazol-2-yl]-N-(3,4-dimethylisoxazol-5-yl)piperazine-1-carboxamide]	128
